# Assay: Human HepG2 cell viability assay in 384 well format
# Type: toxicity, cell-based
# Set-up: dose 125 nL, time 70.5 hour; concentration not given beside the values
# Conditions: HepG2 cells, read-out: Inhibition
row,Structure (SMILES),cytotoxicity at 70.5 h [%]
1,Cc1sc(NS(=O)(=O)c2ccccc2)nc1C(=O)NC1CC1,-1.95
2,Cc1ccc(N2CCN(c3ccccc3C)CC2C)nn1 (stereo unspecified),-0.203
3,Cc1ncc2c(n1)CN(Cc1nnc(-c3ccccc3)o1)CC2,-7.67
4,CCS(=O)(=O)c1nnc([C@@H](N)Cc2ccccc2)o1,16.2
5,OC1(CNCCN2CCc3ccccc32)CNCCOC1 (stereo unspecified),-11
6,CC(=O)NCC(=O)NCC1Cn2nnc(-c3cccc(F)c3)c2CO1 (stereo unspecified),-0.435
7,Cc1nc(CN2CCCC(CCc3ccccc3C)C2)c[nH]1 (stereo unspecified),19
8,CN(C)c1cccc(C(=O)Nc2cnn(CC(N)=O)c2)c1,-16.4
9,O=C(NCCCNc1ccc(C(F)(F)F)cn1)c1ccc2c(c1)OCO2,-9.51
10,Cc1ccc(C(=O)N2CCC(Oc3ccc(F)cc3F)CC2)c(=O)[nH]1,31.6
11,COc1cccc(CNCCc2cccc(C(N)=O)c2)c1,-8.65
12,Cc1cc(C)c2[nH]c(CN3CCCC(N4CCOCC4)C3)cc(=O)c2c1 (stereo unspecified),-5.41
13,NC(=O)CCN1C(=O)CC(Cc2ccc(F)cc2)C1=O (stereo unspecified),-11.2
14,N#CC1(C(=O)N2CCCN(c3nccs3)CC2)CCCCC1,-4.97
15,COCCOc1ccccc1C(=O)NCCN(C)C(C)C,16.8
16,Cc1cc(N(C)Cc2snnc2C)nc(-c2cccnc2)n1,-12.5
17,Cc1csc(NC(=O)Cn2nc(C)ccc2=O)n1,-9.42
18,c1cc(CN2C[C@@H]3OCCN(CC4CC4)[C@@H]3C2)n[nH]1,-7.71
19,COCc1c(Br)cccc1NC(=O)CC(F)(F)F,-13.2
20,COc1cccc(Nc2nc(C3CCNCC3)c3sc(C)c(C)n23)c1,-7.32
21,Cc1cc(NC(=O)N2CCN(C)CC2C)n(Cc2ccccc2)n1 (stereo unspecified),-9.75
22,COc1ccc(CNC(c2cccc(F)c2)c2cnn(C)c2)cc1 (stereo unspecified),-3.12
23,N#CC1(C(=O)NCCCNc2ccc(C(F)(F)F)cn2)CCCC1,5.77
24,Cc1ccc(C(=O)O)cc1NC(=O)C1CC=CC1,22.9

row,Structure (SMILES),cytotoxicity at 70.5 h [%]
1,COCCN(CC1CC1)c1nc(CCN)nc2ccccc12,-4.8
2,Cc1nocc1C(=O)N1CCc2c(CN(C)C)nn(C)c2C1,-13.6
3,Cn1c(=O)[nH]c2cc(C(=O)OCCCn3ccccc3=O)ccc21,33.2
4,c1csc(CN(Cc2ccsc2)CC2CCCO2)n1 (stereo unspecified),-1.84
5,CCC1CN(C(=O)Nc2cnc3c(cnn3C(C)C)c2)CCO1 (stereo unspecified),1.85
6,O=C(c1cc[nH]n1)N1CCCC1c1ccccn1 (stereo unspecified),-4.38
7,CC(C)CCN(C)Cn1ncc2cn(-c3ccccc3)nc2c1=O,14.5
8,COCc1noc(Cn2ccc3ccccc3c2=O)n1,-5.61
9,CC1CN(CC2CCCCC2)CCN1c1ccc2nncn2n1 (stereo unspecified),41.2
10,NCc1ccc(Oc2cccc(Cl)c2Cl)nc1,6.23
11,Cc1noc(C)c1CN1C[C@H]2CN(Cc3cccc(F)c3)C[C@H]2C1,-1.37
12,CN(Cc1ccco1)Cc1cnc2n1CCN(c1ccccn1)CC2,-2.44
13,O=C(Cn1c(-c2ccco2)cc2cccnc21)N1CCCC1,-8.97
14,CCC(Nc1nc(C(F)(F)F)nc2ccccc12)C(=O)O (stereo unspecified),2.5
15,O=C(O)CSc1nnc(-c2ccn[nH]2)n1-c1ccccc1Cl,-6.93
16,COc1cccc(N2CCC(CNC(=O)NCc3ccco3)C2)c1 (stereo unspecified),-0.834
17,CCn1ncnc1CN1CCC(CNC(=O)c2cccc(C)n2)C1 (stereo unspecified),-5.47
18,OC1(CN2CCc3nnc(Cc4cccnc4)n3CC2)CCCNC1 (stereo unspecified),-4.53
19,CC1CC(=O)c2cc(C(=O)N3CCc4ccccc4C3)c(=O)[nH]c2C1 (stereo unspecified),-2.25
20,Cc1noc(C)c1-c1cccc(C2CCN(CC(=O)N(C)C)CC2)n1,-2.68
21,CC(C)N(C)S(=O)(=O)NCc1cccnc1N(C)C,-4.22
22,O=C(O)c1cc(S(=O)(=O)Nc2cc(F)cc(F)c2)cc2c1OCCO2,-4.5
23,CS(=O)(=O)N1CCc2ccc(=O)n(CCN3CCCC3)c2CC1,-6.85
24,CC(=O)N1CCOC2(CCCN(Cc3ccc(N(C)C)cc3)C2)C1 (stereo unspecified),-2.02

row,Structure (SMILES),cytotoxicity at 70.5 h [%]
1,CN1CC[C@H](c2nnc(Cc3c[nH]c4ccccc34)o2)C1,-1.52
2,CCc1nc(C2CCCN2CC(=O)Nc2cc(C)no2)no1 (stereo unspecified),-5.2
3,CCOC(=O)c1nnc2ccccc2c1N1CCN(C(C)C)CC1,-4.21
4,Cc1ccc(OCc2cccc(C(=O)N(C)C(C)CC#N)c2)cn1 (stereo unspecified),0.55
5,CCNC(=O)N(C)C1CCCc2nc(C)sc21 (stereo unspecified),-2.26
6,CCC(=O)N1CCN(C(=O)Nc2cccc(C#N)c2)[C@H]2CS(=O)(=O)C[C@H]21,-15.6
7,O=C(NCCc1ccccc1)NCC(O)c1cccc(F)c1 (stereo unspecified),-3.34
8,Cn1ncnc1NCc1ccc(F)cc1,-9.9
9,O=C(Nc1ccccc1)[C@H]1O[C@H](CCN2CCCCC2)CC[C@@H]1O,-3.54
10,Cc1cnn(CC(C)NCc2ccc(OCc3ccncc3)cc2)c1 (stereo unspecified),30.2
11,N#CCCN(Cc1ccco1)C(=O)C1CCCc2ccccc21 (stereo unspecified),-6.61
12,Cc1cnn(CCNCc2nc(-c3ccsc3)oc2C)c1,7.72
13,COc1c(CNC2CCc3cc(C)ccc32)c(C)nn1C (stereo unspecified),-1.11
14,Cc1nnc(NCC2(c3ccc(Cl)cc3Cl)CCOCC2)c(C#N)c1C,13.2
15,CNc1nc2c(s1)C(c1c(F)cccc1Cl)CC(=O)N2 (stereo unspecified),-6.14
16,Cc1noc([C@@H](C)NCc2ccc(F)cc2)c1C(=O)O,-1.34
17,N#Cc1cccnc1NCCNC(=O)N1CCN2CCCCC2C1 (stereo unspecified),13.6
18,O=C(NCCn1cccc1)C1CCCN(C2CCCC2)C1 (stereo unspecified),7.15
19,O=S(=O)(CCCN1CCCC1Cn1cncn1)c1ccccc1 (stereo unspecified),11.6
20,CC(=O)N1CCC(N[C@@H]2CC[C@@H]2NS(=O)(=O)c2cccnc2)CC1,2.57
21,COc1ccccc1N1CCN(c2nc(N)nc3[nH]cnc23)CC1,-11.3
22,CCOc1cc2c(cc1CN1CCC3(CC1)CNC(=O)C3)CCC2,23.3
23,COc1ccc(-c2cc(C(=O)NCCC(C)C)n(C)n2)cc1,4.25
24,COCCSc1ccc(-n2cccn2)nn1,12.3

row,Structure (SMILES),cytotoxicity at 70.5 h [%]
1,O=C(NCC1CCCOC1)c1ccc(-c2ccccc2)[nH]c1=O (stereo unspecified),0.0722
2,N#Cc1ccc(OCC(=O)N2CCCC(n3cccn3)C2)cc1 (stereo unspecified),-4.85
3,Cc1noc(C)c1CN(C)C(=O)c1ccc2c(c1O)OC(C)(C)C2,1.38
4,O=C(N[C@@H]1CN(Cc2cccc(F)c2)C[C@H]1O)c1cscn1,-4.57
5,CC(C)N1CCC2(CC1)C[C@@H](O)[C@H](c1ccccc1)NC2=O,9.43
6,CC(C)(NC(=O)c1scnc1Cl)c1ccccc1,-12.8
7,Cc1ccc(CNC(=O)CN2C=Nc3ccccc3S2(=O)=O)s1,-11.3
8,Cc1cc(NS(=O)(=O)c2c[nH]c3ncccc23)no1,0.354
9,Cc1nn(C)c(Cl)c1C1CCCN1C(=O)c1ccc2c(c1)COC2 (stereo unspecified),-0.781
10,COc1ccccc1N1CCN(Cc2nccc(OC)c2OC)CC1=O,7.74
11,CCn1cc(NC(=O)NCC(O)CN2CCCCC2)cn1 (stereo unspecified),-14.9
12,Cc1cnn(CCNCc2c(C)nn(-c3ccccc3)c2C)c1,2.45
13,COc1cccc(OC)c1C(=O)NCC(c1cccn1C)N1CCCC1 (stereo unspecified),-5.44
14,COCCNC(=O)C1CN(Cc2cccnc2)Cc2ccnn2C1 (stereo unspecified),-13.8
15,CN(C)CCOCc1nnc2n1CCN(Cc1ccco1)CC2,-4.62
16,O=C(c1ccccn1)N1CC(S(=O)(=O)c2ccc(Cl)cc2)C1,1.72
17,O=C1C(NS(=O)(=O)c2cc(F)cc(F)c2)CCN1Cc1ccccc1 (stereo unspecified),23.4
18,COCCN1CCOCC12CCN(c1nccs1)CC2,-20.8
19,Cc1ccc(C)c(CSc2nnc([C@@H](N)C(C)C)o2)c1,-0.583
20,Cc1ccccc1OCCN1CCN(Cc2cnn(CCO)c2)CC1,4.76
21,O=C(NC1CC2(CCN(CCO)CC2)Oc2ccccc21)c1csnn1 (stereo unspecified),-0.338
22,O=C(c1cnccn1)N1CCc2ncnc(-c3cccnc3)c2CC1,-16.1
23,Cc1ccc(N2CCCC(NCC(=O)Nc3cc(C)no3)C2)nn1 (stereo unspecified),25.6
24,c1cncc(CN2CCC3(COCCN(C4CCOCC4)C3)C2)c1 (stereo unspecified),-6.19

row,Structure (SMILES),cytotoxicity at 70.5 h [%]
1,CC(C)(C)c1cn(C2CCN(C3CCSC3)CC2)nn1 (stereo unspecified),-7.05
2,Cc1ccccc1CN1CCC(CNC(=O)Cn2cncn2)CC1,13.8
3,O=C(O)c1cc(S(=O)(=O)N2CCOc3ccccc32)cc(Cl)c1Cl,-9.63
4,Cn1cc(CCCN2CCN(Cc3cccc(O)c3)CC2)cn1,-3.39
5,CS(=O)(=O)N1CCCC(C(=O)Nc2cnn(COCC(F)(F)F)c2)C1 (stereo unspecified),3.12
6,N#Cc1ccc(OCCN2CCc3c(ncn3C3CC3)C2)cc1,8.16
7,CC(=O)N1CCC(c2nc3ccc(C)cn3n2)CC1,-0.807
8,Cc1nc(Nc2ncc(C)s2)cc(C2CCCN2S(C)(=O)=O)n1 (stereo unspecified),-13.7
9,CCc1c(C)nn(CCNC(=O)c2csc(C)n2)c1C,-6.58
10,Cc1nccn1CCC1CCCCN1Cc1ccc2c(c1)OCCO2 (stereo unspecified),14.5
11,O=C(Cn1ccc2ccccc21)N1CCC(Oc2ncccc2Br)CC1,-3.13
12,CCc1c(C)nc(C)nc1N1CCC(NCCSc2nnnn2C)CC1,-6.49
13,Clc1ccc(CN2CCCC2Cn2cncn2)c2ncccc12 (stereo unspecified),-2.37
14,COCCN(C)C[C@@H]1CN(c2cc(C)nc3ccccc23)C[C@@H]1CO,-14.9
15,Cc1cnn(CC2CCCN2C(=O)c2nccc3ccccc23)c1 (stereo unspecified),-15.9
16,Cn1ccc2cc(CC3COCCN(C(=O)c4cccnc4)C3)ccc21 (stereo unspecified),11.9
17,CC(C)c1cc(N2CCCC3(CCN(C)C3)C2)ncn1 (stereo unspecified),-5.86
18,CC(C)c1nnc2n1CCN(C(C(N)=O)c1ccc(F)cc1)C2 (stereo unspecified),-21.3
19,COc1ccc(OC2CCN(C(=O)c3cnc(C)s3)CC2)cc1,-4.93
20,COCCN1CCO[C@@H]2CN(C(=O)NCc3cccnc3)CC[C@@H]2C1,0.801

# From ChEMBL document CHEMBL3507680, “University of Dundee, Gates Library screen for HepG2 cell viability”
